The results in this text go back to patent publication US20260317340A1, “COMPOUNDS, COMPOSITIONS, AND METHODS OF TREATING DISORDERS” (Chengdu Anticancer Bioscience, Ltd., priority 2023, published 2026).

Assay [1] deals with RPE-Neo or RPE-MYC or RPE-MYC expressing an EGFP-Histone 2B fusion protein. As to the kind of experiment: Phenotypic screening assay: arrest in mitosis, change in DNA content (polyploidy), cell death. The class given is cell-based. To be noted: 20 nM to 20 μM, 24, 48 or 72 hours. The gist of the method:
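RPE-Neo, RPE-MYC or RPE-MYC EGFP-H2B cells plated 18-24 h before treatment with compounds at 20 nM to 20 μM. Mitotic arrest or DNA-content change scored by automated imaging at 24, 48 or 72 h; proliferation by MTT. Values binned into A–D ranges.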

Assay [2] deals with human cancer cell line NCI-H460. The assay is described as follows: Tumor growth inhibition, NCI-H460 tumors in BAL B/c nude mice. The class given is in vivo, human tumor cell line in BAL B/c nude mice. Particulars: oral, 4 days-on, 3 days-off, 30% PEG300. The method, then:
(§1) Six- to seven-week-old female BAL B/c nude mice were used in the human cancer cell line NCI-H460, which was derived from a lung cancer patient. Six- to seven-week-old female BAL B/c mice were used in the mouse […] cell line CT26 allograft models. 100 μL cell suspensions containing one million cells with […] (Corning, Cat. No. 354254) were implanted subcutaneously into the right flank of mice. Mice were monitored daily for well-being and weighed twice weekly. Caliper measurements of tumor sizes began when tumors became visible. Tumor volume (TV) was calculated by measuring two perpendicular diameters using the following formula: (L×W2)/2 in which L and W refer to the length and width of a tumor, respectively. When tumors reached an average size of 100 mm3, mice were first ranked according to tumor size and divided into “n” cohorts with X mice in each cohort. Each cohort was then sorted into 1 to X groups according to the random numbers size order generated by the RAND 0)function in Excel. In this way, the mice were randomized into X groups (n=4-6). Then the mice were orally administrated with vehicle (30% PEG 300) or indicated compounds at a dose volume of 5 mL/kg in a double-blinded manner. Oral administration was chosen because this is the intended route of use in the clinic. In all cases, no tumor measurement data or animals were excluded from the data analysis. Percentage of tumor growth inhibition (TGI) was calculated using the following formula: % TGI=average 100×[1−(final TV−initial TV of treatment group)/(final TV−initial TV of control group)]. As set forth in table 3 below, an values of greater than or equal to 35% and less than or equal to 45% […] is marked “C”; a value greater than 45% and less than or equal to 55% is marked “B”; a value greater than 55% and less than or equal to 70% is marked “A”; and […]

Assay [3] relates to RPE-Neo or RPE-MYC cells. As to the kind of experiment: MTT assay of cellular proliferation (proliferative arrest). It is filed as cell-based. Particulars: read-out: Min. Effective conc. for Proliferative arrest (>50%).
Assay [4] is described as follows: Tumor growth inhibition, CT26 allograft in BAL B/c mice. The class given is in vivo, mouse tumor cell line in BAL B/c mice. To be noted: oral, 8 mg/kg, 4 days-on, 3 days-off, 20 days, 30% PEG300. The method, then:
as §1

The mark [5] stands for this setting: read-out: Min. Effective conc. for Along with Cell Death.
[6] abbreviates: ≥5%, read-out: Min. Effective conc. for Mitotic Arrest (≥5%).
Where [7] appears, read: ≥5%, read-out: Min. Effective conc. for Polyploidy (≥5%).

SMILES strings stand for the structures. Read-outs that look alike come from different tables or passages of the source.

`COc1ccc(CN2C(=O)CC(c3ncc(C)o3)=Cc3ccc(-c4ccc(=O)n(C)c4)cc32)cc1` [Compound 45, 1-(4-methoxybenzyl)-8-(1-methyl-6-oxo-1,6-dihydropyridin-3-yl)-4-(5-methyloxazol-2-yl)-1,3-dihydro-2H-benzo[b]azepin-2-one]: the minimal effective concentration in assay [1] (setting [5]), in assay [1] (setting [6]), in assay [1] (setting [7]) and in assay [3] was 0.001 to 1 µM each time. Besides, in assay [2] (36 mg/kg, 20 days), the TGI % result is “A (greater than 55% and less than or equal to 70%)”.
For `COc1ccc(CN2C(=O)CC(c3nnc(C4CC4)o3)=Cc3ccc(-c4cnn(CC(C)(C)O)c4)cc32)cc1` [Compound 94, 4-(5-Cyclopropyl-1,3,4-oxadiazol-2-yl)-8-(1-(2-hydroxy-2-methylpropyl)-1H-pyrazol-4-yl)-1-(4-methoxybenzyl)-1,3-dihydro-2H-benzo[b]azepin-2-one], the minimal effective concentration in assay [1] (setting [5]), in assay [1] (setting [6]), in assay [1] (setting [7]) and in assay [3] was 0.001 to 1 µM each time. For the same compound, the TGI % entry in assay [4] was “B (greater than 45% and less than or equal to 55%)”.
As for `COc1ccc(CN2C(=O)CC(c3ncc(C)o3)=Cc3ccc(-c4cnn(CCN5CCOCC5)c4)cc32)cc1` [Compound 38, 1-(4-methoxybenzyl)-4-(5-methyloxazol-2-yl)-8-(1-(2-morpholinoethyl)-1H-pyrazol-4-yl)-1,3-dihydro-2H-benzo[b]azepin-2-one], the minimal effective concentration in assay [1] (setting [5]), in assay [1] (setting [6]), in assay [1] (setting [7]) and in assay [3] was 0.001 to 1 µM in each case. The TGI % result in assay [2] (36 mg/kg, 20 days) was “B (greater than 45% and less than or equal to 55%)”.
As for `COc1ccc(CN2C(=O)CC(c3ncc(C)o3)=Cc3ccc(-c4cnn(CCO)c4)cc32)cc1` [Compound 36, 8-(1-(2-hydroxyethyl)-1H-pyrazol-4-yl)-1-(4-methoxybenzyl)-4-(5-methyloxazol-2-yl)-1,3-dihydro-2H-benzo[b]azepin-2-one], the minimal effective concentration in assay [1] (setting [5]), in assay [1] (setting [6]), in assay [1] (setting [7]) and in assay [3] was 0.001 to 1 µM throughout. The TGI % result in assay [2] (15 mg/kg, 20 days) was “A (greater than 55% and less than or equal to 70%)”.
`COCCCn1cc(-c2ccc3c(c2)N(Cc2ccc(OC)cc2)C(=O)CC(c2ncc(C)o2)=C3)cn1` [Compound 57, 1-(4-Methoxybenzyl)-8-(1-(3-methoxypropyl)-1H-pyrazol-4-yl)-4-(5-methyloxazol-2-yl)-1,3-dihydro-2H-benzo[b]azepin-2-one]: the minimal effective concentration in assay [1] (setting [5]), in assay [1] (setting [6]), in assay [1] (setting [7]) and in assay [3] was 0.001 to 1 µM throughout. The TGI % result in assay [2] (80 mg/kg, 20 days) is “A (greater than 55% and less than or equal to 70%)”.
Turning to `COc1ccc(CN2C(=O)CC(c3ncc(C)o3)=Cc3ccc(-c4cnn(CC5CC5)c4)cc32)cc1` [Compound 53, 8-(1-(cyclopropylmethyl)-1H-pyrazol-4-yl)-1-(4-methoxybenzyl)-4-(5-methyloxazol-2-yl)-1,3-dihydro-2H-benzo[b]azepin-2-one], the minimal effective concentration in assay [1] (setting [5]), in assay [1] (setting [6]), in assay [1] (setting [7]) and in assay [3] was 0.001 to 1 µM in each case. Further, the TGI % result in assay [2] (40 mg/kg, 20 days) was “C (greater than or equal to 35% and less than or equal to 45% μM)”.
`COc1ccc(CN2C(=O)CC(c3ncc(C)o3)=Cc3ccc(-c4ccc(N)nc4)cc32)cc1` [Compound 42, 8-(6-aminopyridin-3-yl)-1-(4-methoxybenzyl)-4-(5-methyloxazol-2-yl)-1,3-dihydro-2H-benzo[b]azepin-2-one]: the minimal effective concentration in assay [1] (setting [5]), in assay [1] (setting [6]), in assay [1] (setting [7]) and in assay [3] was 0.001 to 1 µM each time. Moreover, in assay [2] (36 mg/kg, 13 days), the TGI % result is “C (greater than or equal to 35% and less than or equal to 45% μM)”.
On to `COCCn1cc(-c2ccc3c(c2)N(Cc2ccc(OC)cc2)C(=O)CC(c2ncc(C)o2)=C3)cn1` [Compound 51, 1-(4-methoxybenzyl)-8-(1-(2-methoxyethyl)-1H-pyrazol-4-yl)-4-(5-methyloxazol-2-yl)-1,3-dihydro-2H-benzo[b]azepin-2-one], for which the minimal effective concentration in assay [1] (setting [5]), in assay [1] (setting [6]), in assay [1] (setting [7]) and in assay [3] was 0.001 to 1 µM throughout. Further, the TGI % entry in assay [2] (15 mg/kg, 29 days) was “A (greater than 55% and less than or equal to 70%)”.
With `COc1ccc(CN2C(=O)CC(c3ncc(C)o3)=Cc3ccc(-c4cnn(C5COC5)c4)cc32)cc1` [Compound 54, 1-(4-Methoxybenzyl)-4-(5-methyloxazol-2-yl)-8-(1-(oxetan-3-yl)-1H-pyrazol-4-yl)-1,3-dihydro-2H-benzo[b]azepin-2-one], the minimal effective concentration in assay [1] (setting [5]), in assay [1] (setting [6]), in assay [1] (setting [7]) and in assay [3] was 0.001 to 1 µM in each case. The TGI % result in assay [2] (50 mg/kg, 20 days) is “C (greater than or equal to 35% and less than or equal to 45% μM)”.
Turning to `COc1ccc(CN2C(=O)CC(c3ncc(C)o3)=Cc3ccc(-c4cnn(C(C)(C)C(N)=O)c4)cc32)cc1` [Compound 76, 2-(4-(1-(4-Methoxybenzyl)-4-(5-methyloxazol-2-yl)-2-oxo-2,3-dihydro-1H-benzo[b]azepin-8-yl)-1H-pyrazol-1-yl)-2-methylpropanamide], the minimal effective concentration in assay [1] (setting [5]), in assay [1] (setting [6]), in assay [1] (setting [7]) and in assay [3] was 0.001 to 1 µM each time.
For the compound `COc1ccc(CN2C(=O)CC(c3ncc(C)o3)=Cc3ccc(-c4ccc(F)nc4)cc32)cc1` [Compound 41, 8-(6-fluoropyridin-3-yl)-1-(4-methoxybenzyl)-4-(5-methyloxazol-2-yl)-1,3-dihydro-2H-benzo[b]azepin-2-one], the minimal effective concentration in assay [1] (setting [5]), in assay [1] (setting [6]), in assay [1] (setting [7]) and in assay [3] was 0.001 to 1 µM each time.
As for `COc1ccc(CN2C(=O)CC(c3ncc(C)o3)=C(Br)c3ccccc32)cc1` [Compound 11, 5-Bromo-1-(4-methoxybenzyl)-4-(5-methyloxazol-2-yl)-1,3-dihydro-2H-benzo[b]azepin-2-one], the minimal effective concentration in assay [1] (setting [5]), in assay [1] (setting [6]), in assay [1] (setting [7]) and in assay [3] was 0.001 to 1 µM each time.
As to `COc1ccc(CN2C(=O)CC(c3ncc(C)o3)=Cc3ccc(-c4cnn(C5(CC#N)CNC5)c4)cc32)cc1` [Compound 85, 2-(3-(4-(1-(4-Methoxybenzyl)-4-(5-methyloxazol-2-yl)-2-oxo-2,3-dihydro-1H-benzo[b]azepin-8-yl)-1H-pyrazol-1-yl)azetidin-3-yl)acetonitrile], the minimal effective concentration in assay [1] (setting [5]), in assay [1] (setting [6]), in assay [1] (setting [7]) and in assay [3] was 0.001 to 1 µM each time.
